# Columns and labels:
# [1] = tested on: autoinducer production by V. cholerae N16961; test: microbe, parasite or virus in culture; details: Vibrio cholerae, read-out: AI Inhibition IC50, BB170
# E. coli MTAN (EcMTAN) = details: read-out: dissociation constant; cited from earlier work
# VcMTAN = biological target: T1, VcMTAN (Vibrio cholerae serotype O1, UniProt Q9KPI8); test: VcMTAN substrate kinetics, loss of MTA at 274 nm; format: biochemical
# T1 sequence (Q9KPI8 1-231): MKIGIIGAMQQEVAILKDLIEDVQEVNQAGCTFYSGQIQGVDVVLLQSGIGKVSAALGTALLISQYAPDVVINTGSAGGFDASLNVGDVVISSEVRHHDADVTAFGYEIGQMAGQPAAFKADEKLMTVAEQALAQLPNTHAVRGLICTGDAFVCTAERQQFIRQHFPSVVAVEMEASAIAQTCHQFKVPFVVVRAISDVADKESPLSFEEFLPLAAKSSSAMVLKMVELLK
# [2] = biological target: T2, cellular MTAN activity in V. cholerae N16961 (Vibrio cholerae serotype O1, UniProt Q9KPI8); format: cell-based; details: cellular IC50 versus Ki*
# T2 sequence (Q9KPI8 1-231): T1 sequence (Q9KPI8 1-231)
# V. cholerae N16961 = test: Growth of V. cholerae; format: cell-based, Vibrio cholerae
# E. coli O157:H7 = test: Growth of E. coli; format: cell-based, Escherichia coli
# [3] = tested on: autoinducer-2 production in E. coli O157:H7; test: Autoinducer-2 production after prolonged incubation; format: cell-based, Escherichia coli; details: E. coli O157:H7, LB, 26 generations, 1 μM; untreated 195-fold
# [4] = tested on: autoinducer-2 production in V. cholerae N16961; test: as above; format: cell-based, Vibrio cholerae; details: V. cholerae N16961, LB, 26 generations, untreated 540-fold
compound,measurement,setting,value
"CCSC[C@H]1CN(Cc2c[nH]c3c(N)ncnc23)C[C@@H]1O [EtT-DADMe-ImmA, 5′-ethylthio-DADMe-ImmucillinA]",IC50,[1],11 ± 2 nM
"CSC[C@H]1CN(Cc2c[nH]c3c(N)ncnc23)C[C@@H]1O [MT-DADMe-ImmA, 5′-methylthio-DADMe-ImmucillinA]",Ki,E. coli MTAN (EcMTAN),0.002 nM
same,IC50,[1],0.94 ± 0.13 nM
"CSC[C@H]1O[C@@H](n2cnc3c(N)ncnc32)[C@H](O)[C@@H]1O [MTA, methylthioadenosine]",Km,VcMTAN,3 µM
same,kcat,VcMTAN,2 s⁻¹
"CCCCSC[C@H]1CN(Cc2c[nH]c3c(N)ncnc23)C[C@@H]1O [BuT-DADMe-ImmA, 5′-butylthio-DADMe-ImmucillinA]",increase above Ki* required to inhibit VcMTAN activity in the cell,[2],30 fold
same,growth of cells in the biofilm assay,"V. cholerae N16961; V. cholerae N16961, 1 μM, static, 25 °C",did not inhibit growth
same,growth,"V. cholerae N16961; V. cholerae N16961, 26 generations, 1 or 2.5 μM",remained uninhibited
same,effect on cell growth (OD600),"V. cholerae N16961; overnight culture, concentrations up to 1 μM",without affecting growth
same,growth of cells in the biofilm assay,"E. coli O157:H7; E. coli O157:H7, 1 μM, static, 25 °C",did not inhibit growth
same,growth,"E. coli O157:H7; E. coli O157:H7, 26 generations, 1 or 2.5 μM",remained uninhibited
same,growth,"E. coli O157:H7; E. coli O157:H7 and MTAN knockout strain, AB medium, up to 0.5 μM",no growth defects
same,light induction in BB170,[3],1.4 fold
same,quorum sensing signal (light induction in BB170),[4]; 1 μM,4.2 fold
same,quorum sensing signal (light induction in BB170),[4]; 2.5 μM,1.3 fold
same,IC50,[1],1.4 ± 0.3 nM

# Source: publication PMC2743263 (Nature chemical biology, 2009)
